Data reported in the Deep4Chem optical property database.

Experiment: solvent given as SMILES

Structure (SMILES): c1ccc(N2c3ccc4ccccc4c3-c3c4ccccc4cc[n+]3[B-]2(c2ccccc2)c2ccccc2)cc1
- emission maximum (in Cc1ccccc1): 623 nm

Structure (SMILES): c1cc2ccc1-c1ccc(cc1)-c1ccc([se]1)-c1ccc(cc1)-c1ccc(cc1)-c1ccc([se]1)-c1ccc(cc1)-c1ccc(cc1)-c1ccc-2[se]1
- emission maximum (in C1CCOC1): 560 nm

Structure (SMILES): CCCCn1c(=O)c2cc3ccc4cccc5ccc(c2c1=O)c3c45
- emission maximum (in ClC(Cl)Cl): 460 nm

Structure (SMILES): Cn1c(=O)nc2n(C)c3ccccc3nc-2c1=O
- emission maximum (in CC1CCCO1): 490 nm
- emission maximum (in CC#N): 529 nm

Structure (SMILES): N#Cc1nn(-c2c(Cl)cccc2Cl)nc1N1CCCC1
- emission maximum (in CC#N): 418 nm

Structure (SMILES): CC(=O)Nc1ccc2c(c1)c(=O)c1cc(NC(C)=O)ccc1n2CCCCCC(=O)O
- emission maximum (in O): 463 nm

Structure (SMILES): CCOCCOCCOC(=O)/C=C/C1=CC2=C(c3c(C)cc(C)cc3C)c3cc(/C=C/C(=O)OCCOCCOCC)cn3[B-](F)(F)[N+]2=C1
- emission maximum (in ClCCl): 606 nm

Structure (SMILES): O=[N+]([O-])c1ccc(/C=C/c2c[nH]c3ccccc23)cc1
- emission maximum (in CC#N): 642 nm
- emission maximum (in CCCCCCC): 511 nm
- emission maximum (in CO): 567 nm
- emission maximum (in O): 552 nm

Structure (SMILES): COc1cc2c(cc1-c1ccc(F)cc1)Cc1c3c(c4c(c1-2)-c1cc(OC)c(-c2ccc(F)cc2)cc1C4)C(=O)N(CCC(C)C)C3=O
- emission maximum (in C1CCOC1): 468 nm

Structure (SMILES): Cn1c(=O)cc(C(=O)c2ccccc2)c2sc(-c3ccc(N(c4ccccc4)c4ccccc4)cc3)cc21
- emission maximum (in CC#N): 504 nm
- emission maximum (in ClCCl): 635 nm

Structure (SMILES): Cc1ccc(-c2ccc(/C=C/c3ccc(N(C)C)cc3)cn2)nc1
- emission maximum (in CC#N): 532 nm

Structure (SMILES): O=C1c2cccc3c(C#CC#Cc4ccc5c6c(cccc46)C(=O)N(c4ccccc4)C5=O)ccc(c23)C(=O)N1c1ccccc1
- emission maximum (in ClCCl): 440 nm

Structure (SMILES): CC(C)(C)c1ccc(C#Cc2c(C#Cc3ccc(C(C)(C)C)cc3)c3cccc4c(C#Cc5ccc(C(C)(C)C)cc5)c(C#Cc5ccc(C(C)(C)C)cc5)c5cccc2c5c34)cc1
- emission maximum (in ClCCl): 443 nm

Structure (SMILES): CC(=O)Nc1ccc(S(=O)(=O)O)c(/N=N/c2c(O)c3ccccc3n(C)c2=O)c1
- emission maximum (in C1CCOC1): 523 nm
- emission maximum (in CC(C)=O): 516 nm
- emission maximum (in CCOC(C)=O): 523 nm
- emission maximum (in CO): 512 nm
- emission maximum (in CS(C)=O): 526 nm
- emission maximum (in Cc1ccccc1): 517 nm
- emission maximum (in ClCCl): 528 nm
- emission maximum (in O): 549 nm

Structure (SMILES): COc1ccc(-c2nnc(-c3cc(-c4nnc(-c5ccc(OC)cc5)o4)c(-n4c5ccccc5c5ccccc54)cc3-n3c4ccccc4c4ccccc43)o2)cc1
- emission maximum (in Cc1ccccc1): 428 nm
- emission maximum (in O=P(c1ccccc1)(c1ccccc1)c1ccccc1Oc1ccccc1P(=O)(c1ccccc1)c1ccccc1): 452 nm

Structure (SMILES): CC1(C)c2ccccc2N(c2ccc(-c3cc(C#N)c(C#N)cc3-c3ccc(N4c5ccccc5C(C)(C)c5ccccc54)cc3)cc2)c2ccccc21
- emission maximum (in Cc1ccccc1): 532 nm
- emission maximum (in c1cc(-c2cccc(-n3c4ccccc4c4ccccc43)c2)cc(-n2c3ccccc3c3ccccc32)c1): 499 nm

Structure (SMILES): F[B-]1(F)n2c(c3cccc4cccc2c43)=Nc2sc3ccccc3[n+]21
- emission maximum (in C1CCOC1): 501 nm
- emission maximum (in CC#N): 500 nm
- emission maximum (in CCCCCC): 493 nm
- emission maximum (in Cc1ccccc1): 504 nm
- emission maximum (in ClCCl): 529 nm

Structure (SMILES): COc1ccc(-c2ccc(-c3c4c(nc5ccccc35)-c3cc5c(cc3CC4)-c3nc4ccccc4c(-c4ccc(-c6ccc(OC)cc6)cc4)c3CC5)cc2)cc1
- emission maximum (in ClC(Cl)Cl): 388 nm

Structure (SMILES): c1cc(-c2c3ccccc3c(-c3ccc4ccccc4c3)c3ccccc23)cc(-n2c3ccccc3c3ccccc32)c1
- emission maximum (in ClCCl): 419 nm

Structure (SMILES): COc1cc2c(cc1OC)C1=C[C@H](c3ccccc3)C3(C(C#N)=C(C#N)N1CC2)c1cc(Br)ccc1-c1ccc(Br)cc13
- emission maximum (in ClCCl): 403 nm

Structure (SMILES): Cc1ccccc1N1c2sc3ccccc3c2Sc2sc3ccccc3c21
- emission maximum (in ClCCl): 564 nm

Structure (SMILES): N#Cc1c[nH]c2ccccc12
- emission maximum (in C1CCOC1): 314 nm
- emission maximum (in C1COCCO1): 305 nm
- emission maximum (in CC#N): 313 nm
- emission maximum (in CC(C)O): 315 nm
- emission maximum (in CCO): 314 nm
- emission maximum (in CO): 314 nm
- emission maximum (in CS(C)=O): 316 nm
- emission maximum (in O): 320 nm
- emission maximum (in OCC(F)(F)F): 314 nm

Structure (SMILES): c1ccc(N(c2ccccc2)c2ccc(-c3ncc(-c4cnc(-c5ccc(N(c6ccccc6)c6ccccc6)cc5)s4)s3)cc2)cc1
- emission maximum (in CO): 510 nm

Structure (SMILES): N#Cc1cc2ccc(C(F)(F)F)cc2c2c1ccc1ccccc12
- emission maximum (in ClC(Cl)Cl): 408 nm

Structure (SMILES): CN(C)c1ccc(/C=C/C=C/c2ccc(C#N)cc2)cc1
- emission maximum (in CC#N): 589 nm
- emission maximum (in CCCC#N): 579 nm
- emission maximum (in CCCCCC): 440 nm
- emission maximum (in CCOCC): 509 nm

Structure (SMILES): c1ccc2c(c1)CC1(C2)c2cc(N3c4ccccc4Sc4ccccc43)ccc2-c2ccc(N3c4ccccc4Sc4ccccc43)cc21
- emission maximum (in Cc1ccccc1): 495 nm

Structure (SMILES): CCC(C)(C)c1ccc(-c2ccc3c(c2)C(CCOC)(CCOC)c2cc(C(C)(C)CC)ccc2-3)cc1
- emission maximum (in C1CCCCC1): 360 nm

Structure (SMILES): CCNc1cc2oc(=O)cc(C(F)(F)F)c2cc1C
- emission maximum (in CC#N): 481 nm

Structure (SMILES): O=P1(c2ccccc2)C2=C(c3ccccc31)[Si](c1ccccc1)(c1ccccc1)c1cc(N(c3ccccc3)c3ccccc3)ccc12 (configuration not stated)
- emission maximum (in CC#N): 629 nm
- emission maximum (in CO): 640 nm
- emission maximum (in Cc1ccccc1): 558 nm

Structure (SMILES): c1ccc(-c2nc(-c3ccccc3)nc(-c3ccc(-n4c5ccccc5c5c6c(ccc54)C4(c5ccccc5-c5ccccc54)c4ccccc4-6)cc3)n2)cc1
- emission maximum (in C1CCOC1): 488.19 nm
- emission maximum (in C1COCCO1): 453.7 nm
- emission maximum (in CN(C)C=O): 525.23 nm
- emission maximum (in Cc1ccccc1): 444 nm
- emission maximum (in ClC(Cl)Cl): 496.99 nm

Structure (SMILES): CCn1c2ccsc2c2c3nsnc3c3c4sccc4n(CC)c3c21
- emission maximum (in C1CCOC1): 539 nm
- emission maximum (in CCOC(C)=O): 538 nm
- emission maximum (in CN(C)C=O): 573 nm
- emission maximum (in Cc1ccccc1): 523 nm
- emission maximum (in ClCCl): 565 nm

Structure (SMILES): N#CSC1=CC2=C(c3ccccc3)c3cc(SC#N)c(N4CCOCC4)n3[B-](F)(F)[N+]2=C1N1CCOCC1
- emission maximum (in CC#N): 628 nm
- emission maximum (in CCCCCC): 623 nm
- emission maximum (in CCOC(C)=O): 628 nm
- emission maximum (in CO): 620 nm
- emission maximum (in ClCCl): 630 nm

Structure (SMILES): CC1(C)C(=O)C=Cc2ccc(N)cc21
- emission maximum (in O): 526 nm

Structure (SMILES): O=c1c2cc3[nH]c4c(S(=O)(=O)O)cc(S(=O)(=O)O)cc4c(=O)c3cc2[nH]c2c(S(=O)(=O)O)cc(S(=O)(=O)O)cc12
- emission maximum (in O): 550 nm

Structure (SMILES): Oc1ccc2ccccc2c1C1Nc2cccc3cccc(c23)N1
- emission maximum (in CC#N): 540 nm
- emission maximum (in CO): 476 nm
- emission maximum (in CS(C)=O): 528 nm
- emission maximum (in Cc1ccccc1): 468 nm

Structure (SMILES): CCN(CC)c1ccc2cc(/C=C(\C#N)c3nc4ccccc4s3)c(=O)oc2c1
- emission maximum (in C1COCCO1): 570 nm
- emission maximum (in CC#N): 596 nm
- emission maximum (in CCO): 594 nm
- emission maximum (in CCOC(C)=O): 576 nm
- emission maximum (in CN(C)C=O): 605 nm
- emission maximum (in CO): 598 nm
- emission maximum (in CS(C)=O): 613 nm
- emission maximum (in Cc1ccccc1): 567 nm
- emission maximum (in ClCCl): 580 nm

Structure (SMILES): CCCCN1C(=O)C(=C/C=C/C=C/C=C2N(CCCC)c3ccccc3N2CCCC)C(=O)N(CCCC)C1=S
- emission maximum (in CC#N): 688 nm
- emission maximum (in CCCCCC): 707 nm
- emission maximum (in CCO): 685 nm
- emission maximum (in CN(C)C=O): 690 nm
- emission maximum (in CO): 682 nm
- emission maximum (in Cc1ccccc1): 715 nm
- emission maximum (in ClC(Cl)Cl): 702 nm
- emission maximum (in ClCCl): 697 nm
- emission maximum (in OCC(F)(F)F): 663 nm

Structure (SMILES): c1cc2c(C3SCCCS3)c3ccc(=[N+]4CCCCC4)cc-3oc2cc1N1CCCCC1
- emission maximum (in CO): 606.31 nm

Structure (SMILES): CCOC(=O)c1cc(C(=O)OCC)c2ccc(N(C)C)cc2n1
- emission maximum (in CCO): 541 nm

Structure (SMILES): COc1c2ccccc2c(OC)c2c1c1cc(C)ccc1n2C
- emission maximum (in C1CCCCC1): 421 nm
- emission maximum (in CC#N): 431 nm
- emission maximum (in CO): 426 nm
- emission maximum (in ClCCl): 428 nm

Structure (SMILES): COc1ccc2oc(=N)c(C#N)cc2c1
- emission maximum (in ClCCl): 468 nm

Structure (SMILES): COc1ccc(C#Cc2nc3ccccc3nc2-c2cn(C)c3ccccc23)cc1
- emission maximum (in C1CCOC1): 490 nm
- emission maximum (in CC#N): 518 nm
- emission maximum (in CC(C)=O): 513 nm
- emission maximum (in CC(C)O): 519 nm
- emission maximum (in CCO): 522 nm
- emission maximum (in CCOC(C)=O): 491 nm
- emission maximum (in CO): 525 nm
- emission maximum (in Cc1ccccc1): 468 nm
- emission maximum (in ClCCl): 506 nm

Structure (SMILES): COC(=O)/C=C/C=C/C1=CC2=C(c3c(C)cc(C)cc3C)c3cc(/C=C/C=C/C(=O)OC)cn3[B-](F)(F)[N+]2=C1
- emission maximum (in ClCCl): 662 nm

Structure (SMILES): CCCCCOc1ccc2c(c1)c1ccc3cccc4c5cc(OC)cc6oc(=O)c2c(c65)c1c34
- emission maximum (in C1CCOC1): 454 nm

Structure (SMILES): N#Cc1ccc(-c2nc(-c3ccccc3)c(-c3ccccc3)[nH]2)cc1
- emission maximum (in CO): 435 nm

Structure (SMILES): N#Cc1ccc(/C=C/c2ncc(-c3ccccc3)o2)cc1
- emission maximum (in ClCCl): 450 nm

Structure (SMILES): Cc1ccc2c(c1)C1(c3ccccc3-c3ccccc31)c1cc(C)ccc1N2c1ccc(-c2ncccn2)cc1
- emission maximum (in Cc1ccccc1): 461 nm
- emission maximum (in O=P(c1ccccc1)(c1ccccc1)c1ccc2oc3ccc(P(=O)(c4ccccc4)c4ccccc4)cc3c2c1): 466 nm

Structure (SMILES): CO[Si](c1c2ccccc2cc2ccccc12)(c1c2ccccc2cc2ccccc12)c1c2ccccc2cc2ccccc12
- emission maximum (in ClC(Cl)Cl): 439 nm

Structure (SMILES): COc1ccc(-c2cc3c(s2)c(C(=O)c2ccccc2)cc(=O)n3Cc2ccccc2)cc1
- emission maximum (in CC#N): 558 nm
- emission maximum (in ClCCl): 547 nm

Structure (SMILES): COc1ccc(/C=C/c2nc(/C=C/c3ccc(N(c4ccccc4)c4ccccc4)cc3)cc(/C=C/c3ccc(N(c4ccccc4)c4ccccc4)cc3)n2)cc1
- emission maximum (in C1CCOC1): 515 nm
- emission maximum (in CC#N): 583 nm
- emission maximum (in CC(C)=O): 555 nm
- emission maximum (in CCCCCCC): 461 nm
- emission maximum (in CS(C)=O): 584 nm
- emission maximum (in Cc1ccccc1): 480 nm
- emission maximum (in ClCCl): 543 nm

Structure (SMILES): C(#Cc1cc2ccc3cccc4ccc(c1)c2c34)c1ccccc1
- emission maximum (in Cc1ccccc1): 399 nm

Structure (SMILES): c1ccc(N(c2ccccc2)c2ccc(-c3ccc4c(c3)C3(c5ccccc5Oc5ccccc53)c3cc(-c5ccc(N(c6ccccc6)c6ccccc6)cc5)ccc3-4)cc2)cc1
- emission maximum (in ClCCl): 457 nm
- emission maximum (in c1cc(-n2c3ccccc3c3ccccc32)cc(-n2c3ccccc3c3ccccc32)c1): 441 nm

Structure (SMILES): Oc1cccc(C2=[N+]3C(=C(c4ccccc4)c4cccn4[B-]3(F)F)C=C2)c1
- emission maximum (in ClC(Cl)Cl): 553 nm

Structure (SMILES): COc1ccc2c(c1)cc(C)c1c3ccccc3[nH]c21
- emission maximum (in ClCCl): 363 nm

Structure (SMILES): COc1ccc(-c2cnc(/C=C/c3ccc(OC)c(OC)c3)o2)cc1
- emission maximum (in ClCCl): 435 nm
